According to patent US9901549B2, “Method for treating vaginal dryness by administering transient receptor potential cation channel subfamily M member 8 (TRPM8) receptor agonists” (UNIVERSIDAD MIGUEL HERNÁNDEZ DE ELCHE, priority 2010, dated 2018):
Where two headings read alike, the source gives them in different places.

Assays:
[1] = target: T1, TRPM8 channels (Homo sapiens, UniProt Q7Z2W7); conditions: FL; data from Behrendt et al., 2004; cited from earlier work
[2] = tested on: cold-sensitive nerve terminals of the mouse cornea; experiment: Nerve terminal impulse (NTI) activity recorded in vitro from cold-sensitive nerve terminals of the cornea
Procedure: To define functionally the thermal sensitivity and encoding capacity of intact cold-sensitive nerve terminals, nerve terminal impulse (NTI) activity from the cornea of wild-type mice eyes was recorded ‘in vitro’ (Brock, J. A., et al., 1998. J. Physiol 512:211-217).
J. Neurosci. 26:12512-12525, Jordt, S. E. et al. 2004. Nature 427:260-265).

[3] = tested on: cold-sensitive nerve terminals of the mouse cornea; experiment: as above; remark: listed apart in the source
[4] = target: T1, TRPM8 channels; conditions: CI; data from Bodding et al., 2007; cited from earlier work
[5] = target: T1, TRPM8 channels; conditions: EP, cited from earlier work
[6] = tested on: eyes of TRPM8(−/−) and wild type mice; experiment: Tear flow (phenol red thread) after topical application to the eye; assay type: in vivo, mouse; conditions: capsaicin 1 μM, AITC 500 μM
Procedure: FIG. 4. Dependence of tear secretion rate on corneal temperature. a. […] Shaded and filled columns represent tearing rate in animals at mean neutral (28.4° C.) or hot temperature (42.5° C.), respectively. The number of measures of successive columns is 35, 11, 23, 9 and 6 observations **p<0.01, ***p<0.001 Mann-Whitney test). b. Increase in tearing rate measured in wild type animals (black columns) and TRPM8−/−(grey columns) elicited by application during 60 s, of a filter paper soaked in capsaicin 1 μM (n=12 and 15) or 500 μM allyl-isothyocyanate. […] Measurements of tear secretion were performed 1 minute after removing the paper with the drug. Statistically significant differences were found with respect to baseline lacrimation, using the Wilcoxon test (*p<0.05, ***p<0.001). c. Mean tearing rate expressed as the wetted length value of the phenol red thread, measured in the eyes of 11 human volunteers at environment temperatures of 18° C., 25° C. and 43° C. that lead to corneal surface temperatures of 32.4±0.4° C.; 34.2±0.1° C. and 36.0±0.2° C. respectively.
Next, it was reasoned that if tear production is associated to the neural activity of cold thermoreceptor fibers, basal tear flow should be reduced in TRPM8(−/−) mice, in which spontaneous activity is absent.

[7] = target: T2, native TRPM8 channel (Homo sapiens, UniProt Q7Z2W7); conditions: CI, cited from earlier work
[8] = target: T2, native TRPM8 channel; conditions: EP, cited from earlier work
[9] = target: T2, native TRPM8 channel; conditions: read-out: IC50 menthol; SF; 20 μM menthol at 22° C.; Ortar et al. 2010; cited from earlier work
[10] = target: T2, native TRPM8 channel; conditions: read-out: IC50 menthol; 100 μM menthol; FL; Behrendt et al. 2004; cited from earlier work
[11] = cold, Malkia et al. 2007, read-out: IC50 cold
[12] = cold, +80 mV, Malkia et al. 2007, read-out: IC50 cold
[13] = read-out: IC50 menthol, 100 μM menthol, −70 mV, Weil 2005

T1 sequence (Q7Z2W7 whole entry): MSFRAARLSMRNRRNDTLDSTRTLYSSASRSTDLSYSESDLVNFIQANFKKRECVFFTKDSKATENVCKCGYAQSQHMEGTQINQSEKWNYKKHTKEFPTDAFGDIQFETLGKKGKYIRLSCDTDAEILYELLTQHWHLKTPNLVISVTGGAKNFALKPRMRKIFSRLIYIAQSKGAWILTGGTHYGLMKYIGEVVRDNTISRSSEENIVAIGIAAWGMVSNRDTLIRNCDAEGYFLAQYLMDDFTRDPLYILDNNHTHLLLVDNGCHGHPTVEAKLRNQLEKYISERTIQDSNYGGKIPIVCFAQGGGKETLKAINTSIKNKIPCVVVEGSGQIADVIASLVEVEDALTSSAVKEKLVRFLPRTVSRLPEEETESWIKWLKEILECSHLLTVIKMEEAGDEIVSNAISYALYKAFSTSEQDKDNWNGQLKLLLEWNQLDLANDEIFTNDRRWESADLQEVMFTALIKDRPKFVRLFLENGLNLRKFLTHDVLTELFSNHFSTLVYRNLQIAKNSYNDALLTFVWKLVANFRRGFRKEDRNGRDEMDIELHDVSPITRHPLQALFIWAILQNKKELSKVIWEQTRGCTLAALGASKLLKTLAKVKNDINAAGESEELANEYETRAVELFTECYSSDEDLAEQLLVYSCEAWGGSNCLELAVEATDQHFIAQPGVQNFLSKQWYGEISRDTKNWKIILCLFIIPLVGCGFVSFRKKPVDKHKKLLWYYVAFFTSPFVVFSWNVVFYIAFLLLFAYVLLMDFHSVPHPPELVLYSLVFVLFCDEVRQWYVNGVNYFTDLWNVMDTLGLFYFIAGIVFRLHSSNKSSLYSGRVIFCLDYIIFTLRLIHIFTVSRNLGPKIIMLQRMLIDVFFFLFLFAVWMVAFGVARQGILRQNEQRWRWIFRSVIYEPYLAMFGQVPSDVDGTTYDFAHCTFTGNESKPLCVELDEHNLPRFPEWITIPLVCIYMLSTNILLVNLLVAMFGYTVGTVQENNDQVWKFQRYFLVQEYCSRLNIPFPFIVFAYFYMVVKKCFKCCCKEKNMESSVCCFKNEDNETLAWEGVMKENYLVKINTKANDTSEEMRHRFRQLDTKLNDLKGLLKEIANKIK
T2 sequence (Q7Z2W7 whole entry): as above

For CC(C)[C@@H]1CC[C@@H](C)CC12OCC(CO)O2 (mixture of isomers) [Frescolat MGA], the EC50 [1] is given as 4.8 ± 1.1 µM.

For CC(C)[C@@H]1CC[C@@H](C)C[C@H]1OCC(O)CO (mixture of isomers) [Cooling Agent 10], the EC50 [1] is given as 6 ± 2.2 µM.

In the case of CC(C)[C@@H]1CC[C@@H](C)C[C@H]1O (relative stereo) [Menthol], the “percentage of terminals with a bursting firing pattern at 34° C.” value ([2]; during perfusion with menthol 50 μM, 5% before treatment) is reported as 44%, the “temperature of silencing during cooling ramps” value ([2]; menthol 50 μM, control 23.8±0.4) is reported as 25.2±0.4 °C and the “temperature at which peak frequency is reached during cooling ramps” value ([2]; menthol 50 μM, control 26.7±0.5, n=44) is reported as 28.6±0.5 °C. For the same molecule, the spontaneous activity ([2]; menthol 50 μM, from 3.4±0.3 before, n=44) was 18.4±1.4 impulses/s, the “tested endings with increased spontaneous activity” value ([2]; menthol 50 μM, n=44) was 98% and the “trigger frequency at basal temperature of 34° C. or during cooling ramps” value ([3]; 50 μM menthol perfusion, TRPM8(−/−) corneas, n=6) was “no increase”. For the same molecule, the “trigger frequency in basal temperature, cold threshold and peak frequency” value ([3]; menthol 50 μM, TRPM8(+/−) mice, significantly less than in TRPM8(+/+)) was “enhanced”.

For COc1ccc(NC(=O)[C@@H]2C[C@H](C)CC[C@H]2C(C)C)cc1 (stereo in doubt) [WS-12, 2-isopropyl-5-methyl-cyclohexanecarboxylic acid (4-methoxyphenyl)-amide], the EC50 [4] is listed as 0.193 µM, the EC50 ([5]; data from Beck et al., 2007) is listed as 0.039 µM and the EC50 ([5]; data from Bodding et al., 2007) is listed as 0.68 µM.

With C=CCN=C=S [AITC, allyl-isothiocyanate] the “effect on spontaneous or cold-evoked activity” value ([2]; AITC 100 μM, 28 cold-sensitive nerve endings tested) was “failed to modify the spontaneous or cold-evoked activity in 24 of them”, the “nerve endings with significant increase in trigger frequency at basal temperature” value ([2]; AITC 100 μM, of 28 endings tested) was “four” and the tear flow [6] was “significantly increased”.

For CC(C)(C)c1ccc(NC(=O)N2CCN(c3ncccc3Cl)CC2)cc1 [BCTC, N-(4-tert-butyl-phenyl)-4-(3-chloropyridin-2-yl) tetrahydropyrazine-1(2H)-carboxamide], the “spontaneous activity and trigger frequency of cold- and menthol-evoked discharges” value ([2]; BCTC 10 μM perfusion during 90 min) was “decreased gradually and almost silenced”, the “effects of BCTC on nerve ending activity in TRPA1(−/−) mice” value ([2]; BCTC 10 μM, TRPA1(−/−) mice) was “also observed” and the “decline in activity upon removal of the drug” value ([2]; after BCTC 10 μM removal) was “reversed partially”. For the same molecule, the IC50 [7, 11] was 0.68 ± 0.06 µM, the IC50 [8, 12] was 0.54 ± 0.04 µM and the IC50 ([8]; read-out: IC50 menthol, 100 μM menthol, +80 mV, modified by Madrid 2006) was 0.34 ± 0.04 µM.

In the case of CCOC(=O)C(C)NC(=O)C1C[C@H](C)CC[C@H]1C(C)C (some centres unmarked) [CPS-369], the EC50 [4] is listed as 3.6 µM.

For C[C@@H]1CN(c2ncccc2Cl)CCN1C(=O)Nc1ccc(C(F)(F)F)cc1 [CTPC, (2R)-4-(3-chloro-2-pyridinyl)-2-methyl-N-[4-(trifluoromethyl)phenyl]-1-pyperazine-carboxamide], the IC50 [8, 13] is listed as 0.131 ± 0.014 µM.

For Oc1cc2c(cc1O)CN(C(=S)NCCc1ccc(Cl)cc1)CCC2 [Capsazepine, N-[2-(4-chlorophenyl)ethyl]-1,3,4,5-tetrahydro-7,8-dihydroxy-2H-2-benzazepine-2-carbothioamide], the IC50 ([7]; cold, Malkia et al. 2009, read-out: IC50 cold) is listed as 12 ± 2 µM.

In the case of Clc1ccccc1C(c1ccccc1)(c1ccccc1)n1ccnc1 [Clotrimazole, 1-[(2-chlorophenyl)diphenylmethyl]-1H-imidazol], the IC50 ([8]; read-out: IC50 menthol, 100 μM menthol, +50 mV, Meseguer et al. 2008) is given as 1.2 µM.

With Nc1ccncc1 [Compound 4-AP, 4-aminopyridine] the “cold threshold of the endings” value ([2]; 4-AP 100 μM) was “no parallel changes”, the “mean peak frequency of cold responses depressed” value ([2]; 4-AP 100 μM, n=9) was 39±6 % of the control value and the “units with significantly increased spontaneous activity” value ([2]; 4-AP 100 μM, nine studied units) was “three out of nine”.

In the case of CC12CCC(CC1)C(C)(C)O2 [Eucalyptol], the EC50 [1] is given as 7700 ± 2000 µM and the EC50 ([5]; data from McKemy et al., 2002) is given as 3400 ± 400 µM.

In the case of CC(O)C(=O)O[C@@H]1C[C@H](C)CC[C@H]1C(C)C (some centres unmarked) [Frescolat ML], the EC50 [1] is given as 3.3 ± 1.5 µM.

In the case of CC(CC=O)CCCC(C)(C)O (centres unmarked) [Hydroxyl-citronellal], the EC50 [1] is listed as 19600 ± 2200 µM.

For C=C[C@@](C)(O)CCC=C(C)C [Linalool, Linallol], the EC50 [1] is listed as 6700 ± 2000 µM.

In the case of CC(C)[C@@H]1CC[C@@H](C)C[C@H]1NC(=O)c1ccc(-c2ccccc2)cc1 [MAD1d, N-[(1R,2S,5R)-2-Isopropyl-5-methylcyclohexyl]biphenyl-4-carboxamide], the IC50 [9] is listed as 0.02 ± 0.0024 µM.

For CC1CCC(C(C)(C)O)C(O)C1 (centres unmarked) [PMD-38, p-menthane-3,8-diol], the EC50 [1] is listed as 31 ± 1.1 µM.

In the case of c1cnc2c(c1)ccc1cccnc12 [Phenanthroline], the IC50 [7, 11] is given as 100 ± 20 µM and the IC50 [8, 12] is given as 180 ± 20 µM.

For CCN(CCNC(=O)Nc1ccccc1Br)c1cccc(C)c1 [SB-452533, N-(2-bhromophenyl)-N′-(2-[ethyl(3-methylphenyl)amino]ethyl)urea], the IC50 [8, 13] is given as 0.571 ± 0.077 µM.

In the case of COc1ccc(CCCOC(Cn2ccnc2)c2ccc(OC)cc2)cc1 (centres unmarked) [SKF96365], the IC50 [7, 11] is listed as 1 ± 0.2 µM, the IC50 ([7]; read-out: IC50 menthol, 100 μM menthol, modified by Madrid 2006) is listed as 3 ± 1 µM and the IC50 [8, 12] is listed as 0.8 ± 0.1 µM.

For CCNC(=O)C1CC(C)CCC1C(C)C (centres unmarked) [WS-3, N-ethyl-p-menthane-3-carboxamide], the EC50 [1] is listed as 3.7 ± 1.7 µM.

In the case of CC1CCC(C(C)C)C(C(=O)NC(C)(C)CO)C1 (centres unmarked) [WS-11, 2-isopropyl-5-methyl-cyclohexanecarboxylic acid (2-hydroxy-1,1-dimethyl-ethyl)-amide], the EC50 ([5]; data from Beck et al., 2007) is given as 6.25 µM.

For CC1CCC(C(C)C)C(C(=O)NC(C)(C)C)C1 (centres unmarked) [WS-14, 2-isopropyl-5-methyl-cyclohexanecarboxylic acid tert-butylamide], the EC50 ([5]; data from Beck et al., 2007) is given as 21.2 µM.

In the case of CC1CCC(C(C)C)C(C(=O)OCC(O)CO)C1 (centres unmarked) [WS-30, 2-isopropyl-5-methyl-cyclohexanecarboxylic acid ester 2,3-dihydroxy-propyl], the EC50 [4] is given as 5.6 µM.

In the case of CCCCCCCP(=O)(C(C)CC)C(C)CC (centres unmarked) [WS-148, 1-(di-sec-butyl-phosphinoyl)-heptane], the EC50 [4] is given as 4.1 µM.

For COc1cc(CNC(=O)CCCC/C=C/C(C)C)ccc1O [capsaicin], the “cold-sensitive endings that responded” value ([2]; 100 nM capsaicin, wild-type mice) was 65%, the tear flow [6] was “significantly increased” and the “impulse discharge evoked in active units” value ([3]; capsaicin 100 nM, TRPM8(−/−) corneas, six units tested) was “evoked a few impulses in two endings (5 and 8 impulses, respectively) and a vigorous, discharge lasting more than 30 s in another”.

In the case of CC(C)(C)c1ccc(NC(=S)N2CCN(c3ncccc3Cl)CC2)cc1 [thio-BCTC, N-(4-tert-butyl-phenyl)-4-(3-chloropyridin-2-yl) tetrahydropyrazine-1(2H)-(thio)carboxamide], the IC50 [10] is listed as 3.5 ± 1.1 µM.
